This assay has as its system Wap-ras tumors. Put plainly: In vivo therapy in the WAP-RAS transgenic model. The arrangement: species or system mice. Particulars: mimetic 20 mpk po every 12 hours; Paclitaxel 5 mpk ip.

Experimental: Mimetic and Paclitaxel combination efficacy is also evaluated in the Wap-ras transgenic model.
Mimetics (20 mpk/dosing po) were dissolved in 20% hydroxyl-propyl-betacyclodexatrin (Vehicle I). 0.2 ml of mimetic solution is the oral dosing volume. Paclitaxel (5 mpk/dosing ip) was dissolved in a diluted ethanol/cremophor EL solution (vehicle II) and the i.p. dosing volume for paclitaxel was 0.1 ml.
The mice are weighed, randomized, and ear-marked on Day 0. Mimetic treatment and Vehicle I treatment began on Day 1 and continued every 12 hours until Day 21. Paclitaxel and Vehicle II treatments are started on Day 4 and continued daily on Day 5, 6, and 7.

With `CC(=O)O[C@H]1C(=O)[C@@]2(C)[C@H]([C@H](OC(=O)c3ccccc3)[C@]3(O)C[C@H](OC(=O)[C@H](O)[C@@H](NC(=O)c4ccccc4)c4ccccc4)C(C)=C1C3(C)C)[C@]1(OC(C)=O)CO[C@@H]1C[C@@H]2O` [Paclitaxel], the “tumor response to treatment” value is “do not respond”.

The values are drawn from patent US8143418B2, “Dimeric small molecule potentiators of apoptosis” (Board of Regents, The University of Texas System, priority 2004, dated 2012).
